Measured values: US8940720B2, “Macrocycles as factor XIa inhibitors” (Bristol-Myers Squibb Company, priority 2010, dated 2015)
Structures can show the parent of a compound that is named as a salt.

Biological target: purified human Factor XIa (Homo sapiens (Human), UniProt P03951)
Assay: Factor XIa enzyme inhibition assay (chromogenic substrate S-2366)
Type: biochemical
Details: substrate S-2366, pH 7.4
Experimental: The effectiveness of compounds of the present invention as inhibitors of the coagulation Factors XIa, VIIa, IXa, Xa, XIIa, plasma kallikrein or thrombin, can be determined using a relevant purified serine protease, respectively, and an appropriate synthetic substrate. The rate of hydrolysis of the chromogenic or fluorogenic substrate by the relevant serine protease was measured both in the absence and presence of compounds of the present invention. […] A decrease in the rate of absorbance or fluorescence change in the presence of inhibitor is indicative of enzyme inhibition. Such methods are known to one skilled in the art. The results of this assay are expressed as the inhibitory constant, Ki.
Values of Ki were determined by allowing the protease to react with the substrate in the presence of the inhibitor. Reactions were allowed to go for periods of 20-180 minutes (depending on the protease) and the velocities (rate of absorbance or fluorescence change versus time) were measured. The following relationships were used to calculate Ki values: (vo−vs)/vs=I/(Ki(1+S/Km)) for a competitive inhibitor with one binding site; or vs/vo=A+((B−A)/1+((IC50/(I)n))); and Ki=IC50/(1+S/Km) for a competitive inhibitor where: […]

Sequence of purified human Factor XIa (P03951 388-625): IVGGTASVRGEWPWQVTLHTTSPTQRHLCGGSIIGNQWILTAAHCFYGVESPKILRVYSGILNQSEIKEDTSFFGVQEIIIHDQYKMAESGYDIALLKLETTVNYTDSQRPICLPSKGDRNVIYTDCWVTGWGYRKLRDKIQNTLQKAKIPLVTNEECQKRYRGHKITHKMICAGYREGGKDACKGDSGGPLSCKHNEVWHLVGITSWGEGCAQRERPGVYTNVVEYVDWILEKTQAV
Sequence of purified human Factor XIa (P03951 19-387 partner): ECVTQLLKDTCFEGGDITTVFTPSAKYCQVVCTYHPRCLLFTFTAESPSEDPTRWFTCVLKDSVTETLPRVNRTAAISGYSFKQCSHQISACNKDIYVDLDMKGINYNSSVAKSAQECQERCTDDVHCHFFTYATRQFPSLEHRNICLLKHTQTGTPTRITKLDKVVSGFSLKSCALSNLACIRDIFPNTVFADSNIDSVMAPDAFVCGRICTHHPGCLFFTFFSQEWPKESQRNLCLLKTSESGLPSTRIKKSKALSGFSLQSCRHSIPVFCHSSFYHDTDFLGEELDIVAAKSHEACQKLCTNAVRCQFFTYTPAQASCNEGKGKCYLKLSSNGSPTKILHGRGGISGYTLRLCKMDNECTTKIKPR

Compound | Ki
COC(=O)Nc1ccc2c(c1)N[C@@H](CO)CCCC[C@H](NC(=O)/C=C/c1cc(Cl)ccc1-n1cnnn1)c1nc-2c[nH]1 [Example I-77, {(9R,14S)-14-[(E)-3-(5-Chloro-2-tetrazol-1-yl-phenyl)-acryloylamino]-9-hydroxymethyl-8,16,18-triaza-tricyclo[13.2.1.0^2,7]octadeca-1(17),2,4,6,15(18)-pentaen-5-yl}-carbamic acid methyl ester, 2 TFA salt] | < 5 nM
COC(=O)Nc1ccc2c(c1)NC(C(=O)OC)(C(F)(F)F)CCCC[C@H](NC(=O)/C=C/c1cc(Cl)ccc1-n1cnnn1)c1nc-2c[nH]1 (stereo partly shown) [Example I-104] | 435 nM
COC(=O)Nc1ccc2c(c1)/N=C/CCCC[C@H](NC(=O)/C=C/c1cc(Cl)ccc1-n1cnnn1)c1nc-2c(F)[nH]1 [Example I-107, {(E)-(S)-14-[(E)-3-(5-Chloro-2-tetrazol-1-yl-phenyl)-acryloylamino]-17-fluoro-8,16,18-triaza-tricyclo[13.2.1.0^2,7]octadeca-1(17),2,4,6,8,15(18)-hexaen-5-yl}-carbamic acid methyl ester, trifluoroacetic acid salt] | 29 nM
COC(=O)Nc1ccc2c(c1)N(C(=O)OC)CCCCC[C@H](NC(=O)/C=C/c1cc(Cl)ccc1-n1cnnn1)c1nc-2c[nH]1 [Example I-108] | 3870 nM
COC(=O)Nc1ccc2c(c1)NC(C(N)=O)C(C)CCC[C@H](NC(=O)/C=C/c1cc(Cl)ccc1-n1cnnn1)c1nc-2c[nH]1 (stereo partly shown) [Example I-114] | 296 nM
COC(=O)Nc1ccc2c(c1)NCCCCC[C@H](NC(=O)/C=C/c1cc(Cl)ccc1-n1cnnn1)c1nc-2c(C#N)[nH]1 [Example I-115, {(S)-14-[(E)-3-(5-Chloro-2-tetrazol-1-yl-phenyl)-acryloylamino]-17-cyano-8,16,18-triaza-tricyclo[13.2.1.0^2,7]octadeca-1(17),2,4,6,15(18)-pentaen-5-yl}-carbamic acid methyl ester, 2 TFA salt] | < 5 nM
CCOC(=O)CN1CCCC[C@H](NC(=O)/C=C/c2cc(Cl)ccc2-n2cnnn2)c2nc(c[nH]2)-c2ccc(NC(=O)OC)cc2C1 [Example I-121] | 736 nM
O=C(/C=C/c1cc(Cl)ccc1-n1cnnn1)N[C@H]1CCCCCNc2cc(NC(=O)OC[C@H]3CCCO3)ccc2-c2c[nH]c1n2 [Example I-124] | < 5 nM
COC(=O)Nc1ccc2c(c1)NC(=O)CCCC[C@H](NC(=O)/C=C/c1cc(Cl)ccc1-n1cnnn1)C1=NC=C2O1 [Example I-134, Methyl N-[(14S)-14-[(2E)-3-[5-chloro-2-(1H-1,2,3,4-tetrazol-1-yl)phenyl]prop-2-enamido]-9-oxo-18-oxa-8,16-diazatricyclo[13.2.1.0^2,7]octadeca-1(17),2(7),3,5,15-pentaen-5-yl]carbamate, trifluoroacetic acid salt] | < 5 nM
COC(=O)Nc1ccc2c(c1)NC(=O)CC/C=C/C[C@H](NC(=O)c1ccc3c(c1)CCNC3)c1nc-2c[nH]1 [Example I-151] | < 5 nM
COC(=O)Nc1ccc2c(c1)NC(=O)CC/C=C/C[C@H](NC(=O)c1ccc3c(c1)CCC[C@H]3N)c1nc-2c[nH]1 [Example I-152] | 21 nM
COC(=O)Nc1ccc2c(c1)NC(=O)CC/C=C/C[C@H](NC(=O)c1ccc3c(c1)CCC[C@@H]3N)c1nc-2c[nH]1 [Example I-153] | 1650 nM
Cc1cc(F)c(C(=O)N[C@H]2C/C=C/CCC(=O)Nc3cc(NC(=O)OCCN(C)C)ccc3-c3nc2[nH]c3Cl)c(F)c1 [Example I-183, [(E)-(S)-18-Chloro-15-(2,6-difluoro-4-methyl-benzoylamino)-9-oxo-8,17,19-triaza-tricyclo[14.2.1.0^2,7]nonadeca-1(18),2,4,6,12,16(19)-hexaen-5-yl]-carbamic acid 2-dimethylamino-ethyl ester, 2 TFA] | 4950 nM
COC(=O)Nc1ccc2c(c1)NC(C(F)(F)F)CC/C=C/C[C@H](NC(=O)/C=C/c1cc(Cl)ccc1-n1cnnn1)c1nc-2c[nH]1 (stereo partly shown) [Example I-211] | 2170 nM
O=C(/C=C/c1cc(Cl)ccc1-n1cnnn1)N[C@H]1C/C=C/CCC(=O)Nc2ccc(F)cc2-c2nc1[nH]c2Cl [Example I-227] | < 5 nM
CCOC(=O)[C@H]1CCCC[C@H](NC(=O)/C=C/c2cc(Cl)ccc2-n2cnnn2)c2nc(c(C)[nH]2)-c2ccc(NC(=O)OC)cc2N1 [Example I-242, (9R,14S)-14-[(E)-3-(5-Chloro-2-tetrazol-1-yl-phenyl)-acryloylamino]-5-methoxycarbonylamino-17-methyl-8,16,18-triaza-tricyclo[13.2.1.0^2,7]octadeca-1(17),2,4,6,15(18)-pentaene-9-carboxylic acid ethyl ester, bis-trifluoroacetic acid salt] | 456 nM
CCOC(=O)[C@H]1CCCC[C@H](NC(=O)/C=C/c2cc(Cl)ccc2-n2cnnn2)c2nc(c(C#N)[nH]2)-c2ccc(NC(=O)OC)cc2N1 [Example I-251, (9R,14S)-14-[(E)-3-(5-Chloro-2-tetrazol-1-yl-phenyl)-acryloylamino]-17-cyano-5-methoxycarbonylamino-8,16,18-triaza-tricyclo[13.2.1.0^2,7]octadeca-1(17),2,4,6,15(18)-pentaene-9-carboxylic acid ethyl ester, 2 TFA] | < 5 nM
COC(=O)Nc1ccc2c(c1)CC(C(=O)N(C)C)CCCC[C@H](NC(=O)/C=C/c1cc(Cl)ccc1-n1cnnn1)c1nc-2c[nH]1 (stereo partly shown) [Example I-258] | 947 nM
COC(=O)Nc1ccc2c(c1)NC(=O)CCCC[C@H](NC(=O)c1ccc3cccnc3c1)c1nc-2c[nH]1 [Example I-262] | 675 nM
COC(=O)Nc1ccc2c(c1)NCCCCC[C@H](NC(=O)/C=C/c1c(C(C)=O)ccc(Cl)c1F)c1nc-2c(C#N)[nH]1 [Example I-265] | 133 nM
COC(=O)Nc1ccc2c(c1)NCCCCC[C@H](NC(=O)/C=C/c1cc(C)ccc1-n1cnnn1)c1nc-2c(C#N)[nH]1 [Example I-268] | 9 nM
COC(=O)Nc1ccc2c(c1)C(=O)C(F)(F)CCCC[C@H](NC(=O)/C=C/c1cc(Cl)ccc1-n1cnnn1)c1nc-2c[nH]1 [Example I-270, {(S)-14-[(E)-3-(5-Chloro-2-tetrazol-1-yl-phenyl)-acryloylamino]-9,9-difluoro-8-oxo-16,18-diaza-tricyclo[13.2.1.0^2,7]octadeca-1(17),2,4,6,15(18)-pentaen-5-yl}-carbamic acid methyl ester, TFA salt] | 1740 nM
COCCOC(=O)Nc1ccc2c(c1)N[C@@H](C(=O)OC)CCCC[C@H](NC(=O)/C=C/c1cc(Cl)ccc1-n1cnnn1)c1nc-2c(C#N)[nH]1 [Example I-278] | < 5 nM
COC(=O)c1ccc2c(c1)-c1c[nH]c(n1)[C@@H](NC(=O)/C=C/c1cc(Cl)ccc1-n1cnnn1)C/C=C/CCC(=O)N2 [Example I-284] | 102 nM
COC(=O)Nc1ccc2c(c1)NCCCCC[C@H](NC(=O)/C=C/c1cc(Cl)ccc1-n1cnnn1)c1nc-2c(C(=O)N(C)C)[nH]1 [Example I-299] | 19 nM
COC(=O)Nc1ccc2c(c1)NC(=O)CC/C=C/C[C@H](NC(=O)/C=C/c1cccc(Cl)c1)c1nc-2c(Cl)[nH]1 [Example I-309] | 9 nM
COC(=O)Nc1ccc2c(c1)NC(=O)CC/C=C/C[C@H](NC(=O)/C=C/c1c(C(F)(F)F)ccc(Cl)c1F)c1nc-2c(Cl)[nH]1 [Example I-311] | < 5 nM
COC(=O)Nc1ccc2c(c1)NC(=O)CC/C=C/C[C@H](NC(=O)c1ccc(C(=N)N)cc1)c1cc-2ccn1 [II-3] | < 5 nM
